Assay results as given in patent US20140336248A1, “THERAPEUTIC COMPOSITIONS AND RELATED METHODS OF USE” (priority 2011, published 2014).

Assays:
ICR mice [1] = assay: Tolerability 0.3, 0.6, 1.0 mg/kg IV in 1% ethanol/4% propylene glycol/5% Solutol HS 15 (Example H); assay type: in vivo, mouse; conditions: male ICR mice
Experimental: (§1) Injectable salinomycin compositions were prepared as follows: A) 0.2 mg/mL composition: 1.01 mg of salinomycin sodium was added to 50 μL ethanol and vortexed for 1 minute to yield a clear solution. 200 μL of propylene glycol was then added and vortexed for 1 minute, yielding a clear solution. To this solution was next added 250 μL Solutol® HS 15, with vortexing for 1 minute and sonicating for 1 minute, to yield a clear solution.
(§2) Eight male ICR mice (Sino-British SIPPR/BK Lab Animal Ltd, Shanghai, China) were assigned to control and treatment groups. […] The individual animal number marked on the tail, and study number comprised a unique identification for each animal. Animal identification was verified during the course of the study. The animals were housed two per cage in stainless steel suspended cage in an environmentally controlled room. SLACOM (Rodent Diet #20110615029, Shanghai SLAC Laboratory Animal Co. Ltd.) was available ad libitum. Temperature and humidity were monitored and recorded twice daily.
(§3) Each composition and the vehicle (control) were administered once daily to each of two mice via intravenous bolus injection for 5 consecutive days. The dose levels for the treated groups and the control group are in the below table. Individual doses were based on the most recent body weight.
(§4) Body weights for all animals were measured and recorded at receipt, prior to randomization, and once daily during the study. Body weight change was calculated for mean value of animals relative to Day 1 mean body weight value.

ICR mice [2] = assay: Tolerability 5.0, 10.0 mg/kg orally in 1% ethanol/4% propylene glycol/5% Solutol HS 15 (Example J); assay type: in vivo, mouse
Experimental: as §1, with “Fompositions for oral administration” for “Injectable salinomycin compositions”, “1.0” for “0.2”, “5.05” for “1.01”
as §2, with “Six” for “Eight”
Each composition and the vehicle (control) were administered once daily to each of two mice via oral gavage for 5 consecutive days. The dose levels for the treated groups and the control group are in the below table. Individual doses were based on the most recent body weight.
as §4

ICR mice [3] = assay: Tolerability 1.5, 2.0, 3.0 mg/kg IV in 1% ethanol/4% propylene glycol/5% Solutol HS 15 (Example I); assay type: in vivo, mouse; conditions: for Body weight: FIG. 2
Experimental: as §1, with “0.6” for “0.2”, “3.03” for “1.01”
as §2, §3, §4

ICR mice [4] = assay: Tolerability 0.1, 0.3, 1.0 mg/kg IV in 1% ethanol/4% propylene glycol/5% Solutol HS 15, 4 days (Example P); assay type: in vivo, mouse
Experimental: as §2, with “Using the techniques described above in Example A, an aqueous vehicle comprising 1% ethanol (v/v), 4% propylene glycol (v/v) and 5% Solutol® HS 15 (v/v) was prepared. An appropriate amount of salinomycin sodium was dissolved into the vehicle to make solutions having concentrations of 0.02, 0.06, and 0.2 mg/mL. Eight male” for “Eight male”, “animal number was marked on” for “animal number marked on”
Each composition and the vehicle (control) were administered once daily to each of two mice via intravenous bolus injection for 4 consecutive days. The dose levels for the treated groups and the control group are in the below table. Individual doses were based on the most recent body weight.
as §4

ICR mice [5] = assay: Tolerability IV in 5% ethanol/15% Solutol HS 15, 5 days (Example L); assay type: in vivo, mouse; conditions: for Clinical observations: one animal
Experimental: Injectable salinomycin compositions were prepared as follows: 0.6 mg/mL stock solution: 1.2 mg of salinomycin sodium was added to 100 μL ethanol and vortexed for 2 minutes and sonicated for 2 minutes to yield a clear solution. To this solution was next added 300 μL Solutol® HS 15, with vortexing for 1 minute. Finally, 1.6 mL water was added to produce a clear stock solution of 0.6 mg/mL salinomycin sodium.
as §2, with “Six” for “Eight”
as §3, §4

ICR mice [6] = assay: Tolerability IV in 10% ethanol/10% Solutol HS 15, 5 days (Example K); assay type: in vivo, mouse; conditions: for Clinical observations: post dosage
Experimental: Injectable salinomycin compositions were prepared as follows: 0.6 mg/mL stock solution: 1.2 mg of salinomycin sodium was added to 200 μL ethanol and vortexed for 2 minutes and sonicated for 30 seconds to yield a clear solution. To this solution was next added 200 μL Solutol® HS 15, with vortexing for 2 minutes. Finally, 1.6 mL water was added to produce a clear stock solution of 0.6 mg/mL salinomycin sodium.
as §2, with “Six” for “Eight”
as §3, §4

[7] = assay type: physicochemical
Excerpt: The precipitate observed in Batch A in Example S was isolated and subjected to XRPD analysis. Comparative evaluation was done as shown in FIG. 11 using (1) API used in the formulation (Batch C, manufactured by Neuland Laboratories Ltd., India) and (2) API from a different lot (Batch D).

Structure (SMILES): CC[C@@H](C(=O)[C@@H](C)[C@@H](O)[C@H](C)[C@@H]1O[C@@H]([C@@H](CC)C(=O)O)CC[C@@H]1C)[C@H]1O[C@]2(C=C[C@@H](O)[C@]3(CC[C@@](C)([C@H]4CC[C@](O)(CC)[C@H](C)O4)O3)O2)[C@H](C)C[C@@H]1C [salinomycin sodium]
- Abnormalities detected (ICR mice [1]; 0.3, 0.6, 1.0 mg/kg IV bolus once daily 5 days): no abnormalities
- Body weight change relative to Day 1 (ICR mice [1]; 0.3, 0.6, 1.0 mg/kg IV bolus once daily 5 days, FIG. 1): all groups added weight
- Dose that can be safely dosed (ICR mice [1]; IV once daily 5 days): 1 mg/kg
- Abnormalities detected (ICR mice [2]; 5, 10 mg/kg oral gavage once daily 5 days, 1% ethanol/4% propylene glycol/5% Solutol HS 15): no abnormalities
- Body weight change relative to Day 1 (ICR mice [2]; 5, 10 mg/kg oral gavage once daily 5 days, 1% ethanol/4% propylene glycol/5% Solutol HS 15, FIG. 3): all groups added weight
- Maximum oral tolerated dosage (ICR mice [2]; oral gavage once daily 5 days, male ICR mice): at least 10 mg/kg
- Clinical observations (ICR mice [3]; 1.5 mg/kg IV once daily 5 days): decreased activity levels
- Recovery (ICR mice [3]; 1.5 mg/kg IV once daily 5 days): returned to normal function at the conclusion of the study
- Body weight (ICR mice [3]; 2 mg/kg IV once daily 5 days): lost weight
- Clinical observations (ICR mice [3]; 2.0 mg/kg IV once daily 5 days, post dosage): decreased activity and rapid breathing
- Mortality (ICR mice [3]; 2.0 mg/kg IV once daily 5 days, two mice): One of the animals dosed at 2.0 mg/kg was found dead on day 4
- Clinical observations (ICR mice [3]; 3.0 mg/kg IV once daily 5 days, after dosing): decreased activity, rapid breathing and loss of reflex activity
- Body weight (ICR mice [3]; 1.5 and 3.0 mg/kg IV once daily 5 days): stable
- Clinical observations (ICR mice [4]; 0.1 mg/kg IV once daily 4 days): no abnormalities
- Clinical observations (ICR mice [4]; 0.3 mg/kg IV once daily 4 days): no abnormalities
- Clinical observations (ICR mice [4]; 1 mg/kg IV once daily 4 days, no abnormalities on days 2, 3, 4): decrease in activity after initial administration
- Body weight (ICR mice [4]; 0.1, 0.3, 1 mg/kg IV once daily 4 days, FIG. 9): increased
- Clinical observations (ICR mice [5]; 0.1 mg/kg IV once daily 5 days): decreased activity immediately after dosing on day 1
- Clinical observations (ICR mice [5]; 0.3 mg/kg IV once daily 5 days): hypersensitivity to touch after dosing on day 1
- Body weight change relative to Day 1 (ICR mice [5]; 0.1, 0.3 mg/kg IV once daily 5 days, FIG. 5): all groups added weight
- Clinical observations (ICR mice [6]; 0.1 mg/kg IV once daily 5 days): decreased activity (e.g., more time spent laying prostrate), rapid breathing, and partially-closed eyelids
- Clinical observations (ICR mice [6]; 0.3 mg/kg IV once daily 5 days): decreased activity levels, partially-closed eyelids, and skin cold to the touch
- Body weight change relative to Day 1 (ICR mice [6]; 0.1, 0.3 mg/kg IV once daily 5 days, FIG. 4): all groups added weight
- Solubility (conclusion) [7]: inadequate solubility
- Solid form by XRPD ([7]; API used in the formulation along with API of a different lot): amorphous nature
